The cell lines below were run with COc1cc2nc(N3CCCN(C)CC3)nc(NC3CCN(Cc4ccccc4)CC3)c2cc1OC + CC(C)C[C@H](NC(=O)[C@H](Cc1ccccc1)NC(=O)c1cnccn1)B(O)O [Bortezomib] (partner 0.002 µM) (assay: relative viability (nuclei count vs DMSO), 5 days (fraction); higher = more cells survive). Conditions: first compound 0.2 µM.
Summary of the method: (§1)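 Lung cancer cell lines, seeded in 1536-well plates, were treated the following day by pin tool with a single drug or with five library-drug doses (not always all listed) in √10 steps on top of a fixed anchor-drug dose. Cells were fixed and nuclei stained in one step after 5 days, and nuclei were counted. Relative viability is the nuclei count for treated wells divided by that for vehicle wells, reported as medians of duplicate plates.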

Cell Line | relative viability
NCI-H838 | 0.858
LCLC-103H | 1.18
NCI-H520 | 0.792
NCI-H2126 | 1.15
EMC-BAC-2 | 1.09
NCI-H2085 | 1
Calu-6 | 0.976
HCC-366 | 1.02
NCI-H1666 | 0.832
NCI-H596 | 1.21
NCI-H2087 | 0.868
H3255 | 0.782
COR-L23 | 0.956
COR-L 105 | 0.787
IA-LM | 0.705
LOU-NH91 | 0.481
ChaGo-K-1 | 0.995
NCI-H2405 | 0.978
HOP-62 | 0.623
HCC-44 | 0.935
LU99A | 1.26
BEN | 0.781
HARA | 1.03
NCI-H1299 | 1.01
CAL-12T | 0.996
NCI-H2228 | 0.91
NCI-H1563 | 0.849
ABC-1 | 0.26

Same assay, conditions: first compound 0.6325 µM

Cell Line | relative viability
NCI-H727 | 0.893
NCI-H1650 | 0.189
EBC-1 | 0.476
NCI-H1703 | 0.379
NCI-H1993 | 1.37
SW 1573 | 0.893
NCI-H838 | 1.02
LCLC-103H | 1.09
NCI-H520 | 0.623
NCI-H2126 | 1.09
EMC-BAC-2 | 1.12
NCI-H2085 | 0.978
Calu-6 | 0.942
HCC-366 | 1
NCI-H1666 | 0.781
NCI-H596 | 1.17
NCI-H2087 | 0.795

Cell Line | relative viability
H3255 | 0.944
COR-L23 | 0.884
COR-L 105 | 0.835
IA-LM | 0.764
LOU-NH91 | 0.552
ChaGo-K-1 | 1.13
NCI-H2405 | 0.987
HOP-62 | 0.869
HCC-44 | 0.85
LU99A | 1.08
BEN | 0.952
HARA | 1.07
NCI-H1299 | 1.01
CAL-12T | 1.32
NCI-H2228 | 0.841
NCI-H1563 | 0.921
ABC-1 | 0.339

Same assay, conditions: first compound 2 µM

Cell Line | relative viability
NCI-H727 | 0.751
NCI-H1650 | 0.2
EBC-1 | 0.437
NCI-H1703 | 0.316
NCI-H1993 | 1.23
SW 1573 | 0.882
NCI-H838 | 0.73
LCLC-103H | 1.31
NCI-H520 | 0.777
NCI-H2126 | 1.13
EMC-BAC-2 | 1.11
NCI-H2085 | 0.996
Calu-6 | 1.03
HCC-366 | 1.03
NCI-H1666 | 0.701
NCI-H596 | 0.959
NCI-H2087 | 0.884

Cell Line | relative viability
H3255 | 0.726
COR-L23 | 1.11
COR-L 105 | 0.591
IA-LM | 1.04
LOU-NH91 | 0.465
ChaGo-K-1 | 1.16
NCI-H2405 | 1.04
HOP-62 | 0.855
HCC-44 | 0.991
LU99A | 1.22
BEN | 1.09
HARA | 1.28
NCI-H1299 | 1.02
CAL-12T | 1.05
NCI-H2228 | 1.47
NCI-H1563 | 0.808
ABC-1 | 0.264

Same assay, conditions: first compound 6.325 µM

Cell Line | relative viability
NCI-H727 | 0.618
NCI-H1650 | 0.216
EBC-1 | 0.265
NCI-H1703 | 0.203
NCI-H1993 | 1.05
SW 1573 | 0.853
NCI-H838 | 0.721
LCLC-103H | 1.01
NCI-H520 | 0.217
NCI-H2126 | 1.08
EMC-BAC-2 | 1.09
NCI-H2085 | 0.912
Calu-6 | 0.948
HCC-366 | 0.927
NCI-H1666 | 0.468
NCI-H596 | 0.763
NCI-H2087 | 0.675

Cell Line | relative viability
H3255 | 0.43
COR-L23 | 0.933
COR-L 105 | 0.404
IA-LM | 0.737
LOU-NH91 | 0.517
ChaGo-K-1 | 0.838
NCI-H2405 | 0.971
HOP-62 | 0.469
HCC-44 | 0.909
LU99A | 1.01
BEN | 0.883
HARA | 1.11
NCI-H1299 | 1.05
CAL-12T | 0.833
NCI-H2228 | 0.519
NCI-H1563 | 0.778
ABC-1 | 0.328

These cell lines were tested with COc1cc2nc(N3CCCN(C)CC3)nc(NC3CCN(Cc4ccccc4)CC3)c2cc1OC + Nc1ncn([C@H]2C[C@H](O)[C@@H](CO)O2)c(=O)n1 [Decitabine] (partner 2 µM) in the same assay as above. Conditions: first compound 0.2 µM.
Summary of the method: as §1

Cell Line | relative viability
NCI-H2342 | 0.791
NCI-H727 | 0.756
NCI-H1650 | 0.403
NCI-H1993 | 0.566
SW 1573 | 0.542
NCI-H838 | 0.45
LCLC-103H | 0.74
NCI-H520 | 0.495
NCI-H2126 | 0.577
EMC-BAC-2 | 0.997
NCI-H2085 | 0.53
HCC-366 | 0.334
NCI-H1666 | 0.597
NCI-H596 | 1.13
LK-2 | 0.276
NCI-H2087 | 0.318
SK-MES-1 | 0.371
H3255 | 0.576
COR-L23 | 0.466
COR-L 105 | 0.687
LOU-NH91 | 0.779
ChaGo-K-1 | 0.553
NCI-H2170 | 0.487
NCI-H2405 | 0.706
HOP-62 | 0.214
HCC-44 | 1.01
A549 | 0.227
